Earlier results, collected in patent US20150272967A1, “EXTREMELY HIGH LOADING DOSE” (priority 2013, published 2015).

Columns and labels:
prostate cancer patients = details: dose significantly lower than that of the invention
breast cancer patients = details: modest low doses

Molecule | patients showing improvement (significant decrease in the number of positive cancer biopsy samples) (prostate cancer patients) [%] | disease free survival (breast cancer patients; 25.5 without supplementation) [months] | median overall survival (breast cancer patients; 32.8 without supplementation) [months]
C=C1CC[C@H](O)C/C1=C/C=C1\CCC[C@]2(C)[C@@H]([C@H](C)CCCC(C)C)CC[C@@H]12 [Vitamin D3, cholecalciferol] | 55 |  | 
Vitamin D |  | 32.6 | 43.8
